Measured values reported in the supplement of paper PMC5844555.

Legend:
Test in all cases: 3' UTR reporter interaction score (median-centred robust z-score of log2 firefly/Renilla activity); higher = less repression of the 3' UTR reporter
Conditions in all cases: HEK293T; 48 h
PHOX2B = test system: PHOX2B
Method in brief: (§1)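 Using DharmaFECT Duo, HEK293T cells (10,000/well, 96-well plates) were co-transfected with 2.5 pmol miRNA mimic, 100 ng firefly luc2P reporter containing the gene's 3' UTR and 20 ng Renilla pRL-TK control, and dual-luciferase activity was read 48 h later. The interaction score is the log firefly/Renilla ratio as a per-plate robust z-score (median, median absolute deviation), median-centred per miRNA, averaged over at least two independent screens; lower, more negative values indicate interaction.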

TP53 = test system: TP53
Method in brief: as §1

PHF6 = test system: PHF6
Method in brief: as §1

MYC = test system: MYC
Method in brief: as §1

MYB = test system: MYB
Method in brief: as §1

MYT1L = test system: MYT1L
Method in brief: as §1

ZEB2 = test system: ZEB2
Method in brief: as §1

MYCN = test system: MYCN
Method in brief: as §1

FBXW7 = test system: FBXW7
Method in brief: as §1

EZH2 = test system: EZH2
Method in brief: as §1

RB1 = test system: RB1
Method in brief: as §1

BRCA2 = test system: BRCA2
Method in brief: as §1

HRAS = test system: HRAS
Method in brief: as §1

NOTCH1 = test system: NOTCH1
Method in brief: as §1

Sequence | 3' UTR reporter interaction score (PHOX2B) | 3' UTR reporter interaction score (TP53) | 3' UTR reporter interaction score (PHF6) | 3' UTR reporter interaction score (MYC) | 3' UTR reporter interaction score (MYB) | 3' UTR reporter interaction score (MYT1L) | 3' UTR reporter interaction score (ZEB2) | 3' UTR reporter interaction score (MYCN) | 3' UTR reporter interaction score (FBXW7) | 3' UTR reporter interaction score (EZH2) | 3' UTR reporter interaction score (RB1) | 3' UTR reporter interaction score (BRCA2) | 3' UTR reporter interaction score (HRAS) | 3' UTR reporter interaction score (NOTCH1)
UCUUGGAGUAGGUCAUUGGGUGG | -1.26 | 0.12 | 1.13 | 0.457 | -0.086 | -0.548 | 1.13 | -0.819 | -2.32 | 0.166 | -0.403 | 0.0799 | 1.18 | -0.846
UCUUGUGUUCUCUAGAUCAGU | -1.16 | -0.0759 | -1.56 | -0.281 | 0.224 | -0.612 | 0.366 | 0.747 | -0.787 | 0.661 | 0.632 | 0.0649 | 0.641 | -0.00434
UCUUUGGUUAUCUAGCUGUAUGA | -0.756 | -1.13 | 0.471 | -0.165 | -0.0519 | -0.093 | 0.948 | -0.305 | 0.588 | 0.57 | 0.127 | -0.397 | 0.757 | -0.836
UGAAACAUACACGGGAAACCUCUU | -0.468 | -0.757 | 2.68 | -4.26 | -0.521 | 0.0487 | 0.135 | -2.74 | 1.59 | 0.948 | -0.893 | 0.436 | -0.108 | 2.03
UGAAGGUCUACUGUGUGCCAG | 0.626 | 1.34 | -1.33 | -0.0308 | 0.992 | -2.06 | 0.194 | 0.394 | 0.56 | 0.277 | -1.18 | -0.173 | -0.000203 | -0.37
UGACAACUAUGGAUGAGCUCU | -0.766 | 0.025 | -0.469 | 0.174 | 0.977 | 0.836 | 0.125 | 0.478 | 0.175 | 0.197 | -2.61 | -0.499 | -0.056 | -0.339
UGAGAACUGAAUUCCAUAGGCU | -0.835 | -0.401 | 0.668 | 0.179 | 0.897 | 0.753 | 0.486 | 0.165 | -1.39 | 0.351 | -0.182 | -1.45 | -0.193 | -0.287
UGAGAACUGAAUUCCAUGGGUU | -1.1 | -0.136 | 1.46 | -0.0139 | 1.11 | 0.806 | 1.41 | 0.702 | -0.989 | 0.673 | -0.62 | -1.66 | -0.164 | -0.245
UGAGACCUCUGGGUUCUGAGCU | -0.781 | -1.24 | -0.429 | 0.551 | -1.3 | 0.762 | 1.27 | 0.725 | 0.371 | 1.01 | 0.176 | -3.69 | -0.0086 | 0.17
UGAGAUGAAGCACUGUAGCUCA | -0.89 | -0.632 | -0.896 | 0.59 | 0.448 | -0.193 | 0.313 | 0.577 | 0.851 | -0.134 | -0.192 | 1.09 | 0.321 | 0.298
UGAGCUAAAUGUGUGCUGGGA | 0.175 | 0.237 | -0.0551 | -0.176 | 0.373 | 1.13 | 0.263 | 0.0799 | -0.406 | 0.105 | -0.0745 | -0.453 | -0.575 | -0.446
UGAGCUGCUGUACCAAAAU | 1.09 | -0.00622 | 0.476 | -0.354 | -0.26 | 0.273 | 0.288 | -1.43 | 0.267 | -0.391 | 0.104 | -0.363 | -0.0544 | 0.526
UGAGGUAGUAAGUUGUAUUGUU | -0.47 | -0.165 | -0.107 | -2.7 | 0.37 | 0.292 | 0.389 | -4.78 | 0.412 | -3.5 | 0.186 | 0.117 | 0.519 | 0.263
UGAGGUAGUAGAUUGUAUAGUU | 0.189 | -0.262 | 0.283 | -2.66 | 0.461 | 0.00725 | -0.843 | -4.33 | 0.329 | -5.6 | 0.338 | 0.246 | 0.942 | -0.987
UGAGGUAGUAGGUUGUAUAGUU | -1.51 | 0.766 | 2.23 | -1.94 | 0.376 | -0.405 | -0.683 | -4.02 | 0.0535 | -3.3 | -1.04 | 0.954 | 0.245 | -0.241
UGAGGUAGUAGGUUGUGUGGUU | 0.11 | 0.495 | 0.852 | -4.84 | 0.859 | 0.566 | -1.14 | -4.48 | 0.642 | -3.63 | 1.01e-16 | 1.21 | 0.13 | -0.305
UGAGGUAGUAGUUUGUACAGU | 0.114 | 0.627 | -0.221 | -2.59 | 0.441 | 0.517 | -1.5 | -3.87 | -0.143 | -4.15 | 0.426 | 0.445 | 1.06 | 0.637
UGAGGUAGUAGUUUGUGCUGU | -1.23 | 0.534 | 0.213 | -3 | 1.1 | 0.99 | 0.496 | -3.97 | 0.144 | -4.28 | 0.903 | 0.294 | 1.26 | -0.444
